Experimental data as given in patent publication US8410118B2, “Inhibitors of fatty acid uptake and methods of use” (NUtech Ventures, priority 2009, dated 2013).
Where two headings read alike, the source gives them in different places.

How the values were obtained:
[1] = system: HepG2 cells; test: C1-BODIPY-C12 fatty acid uptake inhibition in HepG2 cells; format: cell-based
Method: (§1) This cell line is used as an in vitro model to predict human intestinal absorption and secretion [Hilgers et al., Pharm. […] For growth and differentiation, the BD Biosciences Intestinal Epithelium Differentiation Media Pack was used. Cells were plated in basal seeding medium at a density of 2.5×10^5 cells/cm^2 on a collagen-coated black-clear 96-well plate (BD Biosciences). After 72 h in culture, the basal seeding medium was removed and Entero-STIM medium was added to each well. Both media contained mito-serum extender. After another 24 h, cells were serum-starved for one hour in MEM without phenol red prior to performing the C1-BODIPY-C12 uptake assay. […] The cells were seeded in 96-well collagen coated plates at a seeding density of 2.5×10^5 cells/cm^2. […] Cells were subsequently maintained in DMEM and 10% FBS for an additional 3-6 days until fully differentiated. The number of cells per well in screening trials were determined using the FluoReporter® Blue Fluorometric DNA Quantitation Kit from Invitrogen.
(§2) Caco-2 cells were plated in basal seeding medium at a density of 2.5×10^5 cells/cm^2 in collagen-coated 96-well plates, and differentiated as detailed above. HepG2 cells were cultured in EMEM. Differentiated 3T3-L1 adipocytes were maintained in modified DMEM and 10% FBS. After another 24 h, cells were serum-starved for 1 h in MEM without phenol red prior to performing the C1-BODIPY-C12 transport assay [Sandoval et al., Arch. […] In a standard reaction, serum-free MEM was removed from the wells and 50 μL of the test compound in MEM (MEM alone for controls) were added to each well and incubation was continued for 1 h. […] Cell-associated fluorescence was measured as detailed above.

[2] = system: Caco-2 cells; test: Glucose analogue 2-NBDG uptake into Caco-2 cells; format: cell-based, human; conditions: differentiated Caco-2 cells
Method: To assess the impact of selected compounds upon glucose transport, Caco-2 cells were seeded and differentiated in 96-well collagen coated plates as detailed above and incubated for 1 h with compound diluted in PBS. […] Cells were incubated 30 min at 37° C., 5% CO2 to allow uptake. The medium was removed by aspiration and cells were rinsed once with 100 μL, of PBS.

[3] = system: 3T3-L1 adipocytes; test: C1-BODIPY-C12 fatty acid uptake inhibition in 3T3-L1 adipocytes; format: cell-based
Method: as §1, §2

[4] = system: Caco-2 cells; test: C1-BODIPY-C12 fatty acid uptake (transport) inhibition in Caco-2 cells; format: cell-based, human; conditions: for % Transport Standard Assay: compound at f.c. 40 μM, Caco-2 cells, control = 100, mean ± SD of 3-5 experiments
Excerpt: The Caco-2 cell line is derived from a human adenocarcinoma and is able to undergo differentiation into polarized epithelial cells that show a brush border phenotype and form well-developed and functional tight junction complexes [Fogh et al., J. Natl. Cancer Inst., 1977, 59:221-6; Grasset et al., Am. J. Physiol., 1984, 247:C260-7]. This cell line is used as an in vitro model to predict human intestinal absorption and secretion [Hilgers et al., Pharm. Res., 1990, 7:902-10]. Caco-2 cells were maintained in Earl's minimal essential medium (MEM) with 20% FBS in a 95% air 5% CO2 atmosphere at 37° C., as previously described [Sandoval et al., Arch. Biochem. Biophys., 2008, 477:363-71]. For growth and differentiation, the BD Biosciences Intestinal Epithelium Differentiation Media Pack was used. Cells were plated in basal seeding medium at a density of 2.5×10^5 cells/cm^2 on a collagen-coated black-clear 96-well plate (BD Biosciences). After 72 h in culture, the basal seeding medium was removed and Entero-STIM medium was added to each well. Both media contained mito-serum extender. After another 24 h, cells were serum-starved for one hour in MEM without phenol red prior to performing the C1-BODIPY-C12 uptake assay. HepG2 cells (ATCC, HB-8065) were cultured according to the ATCC protocol. The cells were seeded in 96-well collagen coated plates at a seeding density of 2.5×10^5 cells/cm^2. […] For differentiation into adipocytes, 3T3-L1 cells were treated with methylisobutylxanthine (0.5 mM), dexamethasone (1.0 μM), and insulin (1.75 μM) in DMEM and 10% FBS for 48 hours as described by Student et al. [Student et al., J. Biol. Chem., 1980, 255:4745-50]. After 48 hour incubation with differentiation medium, cells were treated with DMEM and 10% FBS supplemented with insulin (1.75 μM) for 48 hours. Cells were subsequently maintained in DMEM and 10% FBS for an additional 3-6 days until fully differentiated. The number of cells per well in screening trials were determined using the FluoReporter® Blue Fluorometric DNA Quantitation Kit from Invitrogen.
Caco-2 cells were plated in basal seeding medium at a density of 2.5×10^5 cells/cm^2 in collagen-coated 96-well plates, and differentiated as detailed above. HepG2 cells were cultured in EMEM. Differentiated 3T3-L1 adipocytes were maintained in modified DMEM and 10% FBS. After another 24 h, cells were serum-starved for 1 h in MEM without phenol red prior to performing the C1-BODIPY-C12 transport assay [Sandoval et al., Arch. Biochem. Biophys., 2008, 477:363-71; Arias-Barrau et al., Methods Mol. Biol., 2009, 580:233-49]. In a standard reaction, serum-free MEM was removed from the wells and 50 μL of the test compound in MEM (MEM alone for controls) were added to each well and incubation was continued for 1 h. Then 50 μL of C1-BODIPY-C12 mixture (final concentrations 5 μM C1-BODIPY-C12; 5 μM FAF BSA; 1.97 mM trypan blue) was added to each well, and uptake was allowed to take place for 15 min. Cell-associated fluorescence was measured as detailed above. […] Ligand competition curves were fit by nonlinear least-squares regression using one-site competition and dose-response models and Prism software (GraphPad software, Inc., San Diego, Calif.) in order to determine the compound concentration that reduced C1-BODIPY-C12 fluorescence readout by 50% (IC50). Ki values were calculated from the IC50 using the equation of Cheng and Prusoff as detailed in Li et al. [J. Lipid Res., 2008, 49:230-44] and KT values published by Sandoval et al. [Sandoval et al., Arch. Biochem. Biophys., 2008, 477:363-71].

[5] = system: long chain acyl-CoA synthetase (Acsl); test: Oleoyl-CoA synthetase (Acsl) activity in Caco-2 cell extracts after compound treatment; format: biochemical, human; conditions: Caco-2 cells pretreated 1 h; for oleoyl CoA synthetase activity: activity in total cell extracts
Method: Caco-2 cells were grown and differentiated in 60 mm collagen coated dishes (at a seeding density 2.5×10^5 cells/cm^2). Following growth and differentiation as detailed above, cells were serum starved for 1 h in MEM and then were treated for 1 h with selected compounds at specified final concentrations. The media was subsequently removed by aspiration and cells washed once with 5 mL PBS, trypsinized using standard procedures and collected by centrifugation. The cell pellet was resuspended in 1 mL STE lysis buffer (10 mM Tris-HCl (pH 8.0); 0.1M NaCl; 1 mM EDTA) and sonicated on ice for 2 min using 3 sec on/off pulses. […] In parallel experiments, untreated cells were used to prepare the cell extract for Acsl activity measurements where the compound of interest was added directly to the reaction mixture.
Acyl-CoA formed during the reaction remained in the aqueous fraction and was quantified by scintillation counting. Data were expressed as nmol oleoyl CoA formed/min/mg protein.

[6] = system: Caco-2 cells; test: MTT cytotoxicity assay in Caco-2 cells
Method: The MTT [3-(4,5-dimethylthiazol-2-yl)-2,5-diphenyltetrazolium bromide] assay was used to determine if compounds of interest were cytotoxic to Caco-2 cells [Mosmann, J. Immunol. […] Cells were cultured and differentiated as detailed above in collagen-coated 96-well plates. Cells were incubated at 37° C., 5% CO2 for at least one hour and up to 72 h in MEM containing the appropriate dilution of compound. Following this incubation period, the media with compound was removed and 110 μL, of MTT reagent (prepared in MEM (final concentration 0.45 mg/mL MTT)) was added. After a 3 h incubation period, the reaction was terminated by the addition of 150 μL, stop buffer (0.01N HCl in 10% SDS). The plates were incubated for 1 h at 37° C. to facilitate solubilization of formazan crystals; color development was read at A570.

[7] = C1-BODIPY-C12 uptake, average of 3 experiments ± SEM, read-out: Caco-2 IC50
[8] = Table 3, structurally related compounds in Caco-2 cells, read-out: IC50
[9] = Table 4, derived from laboratory data, read-out: IC50 (μM ± SE)
[10] = Homo sapiens, Caco-2, Table 4, derived from laboratory data, read-out: IC50 (μM ± SE)
[11] = Homo sapiens, Table 3, structurally related compounds in Caco-2 cells, read-out: IC50

Row | IC50 [4, 8] [µM] | IC50 [4, 9] [µM] | IC50 [4, 10] [µM] | Structure (SMILES) | glucose (2-NBDG) transport ([2]; 20 μM) | % Transport Standard Assay [4] [%] | oleoyl CoA synthetase activity [5] | cellular toxicity (MTT, mitochondrial function) ([6]; 50 μM for 24 h) | other results
1 | – | – | – | COc1cc(/C=C2/SC(=S)N(c3cccc(F)c3)C2=O)cc(Br)c1O [Compound I-4] | – | – | – | – | IC50 [4, 11]: 4.7 ± 0.8 µM
2 | – | – | – | OCC(CCc1c[nH]c2ccccc12)c1c[nH]c2ccccc12 (stereo not shown) [Compound V-1, 2,4-bis(1H-indol-3-yl)butan-1-ol] | – | 52 ± 2 | not reduced | – | IC50 ([1]; Homo sapiens, HepG2): 84.1 ± 14.1 µM; glucose (2-NBDG) transport ([2]; 50 μM): reduced 2-NBDG transport slightly; cellular toxicity (MTT, mitochondrial function) ([6]; 100 μM for 24 h): not toxic; IC50 ([3]; Mus musculus, 3T3-L1): 143 ± 22.4 µM; IC50 ([4]; Homo sapiens, Caco-2, C1-BODIPY-C12 uptake, average of 3 experiments ± SEM, read-out: Caco-2 IC50): 29.2 ± 3.64 µM
3 | 6.34 ± 0.93 | 6.34 ± 0.93 | – | O=c1cc(-c2ccc([N+](=O)[O-])cc2)[nH]c2c(-c3ccc(Cl)cc3)c(Cc3ccccc3)nn12 [II-1, 2-benzy1-3-(4-chloropheny1)-5-(4-nitropheny1)-1H-pyrazolo[5,1-b]pyrimidin-7-one] | not affected | 54 ± 1 | not reduced | not toxic | IC50 [1]: 10.2 ± 1.26 µM; IC50 [3]: 901 ± 205 µM; IC50 [4, 7]: 6.34 ± 0.93 µM
4 | – | – | 4.93 ± 0.4 | Oc1c(C2=NCCNC(C(F)(F)F)=C2)ccc2ccccc12 [III-1, 2-[7-(trifluoromethyl)-2,3-dihydro-1H-1,4-diazepin-5-yl]naphthalen-1-ol] | not affected | 35 ± 1 | not reduced | not toxic | IC50 ([1]; Homo sapiens, HepG2): 6.72 ± 0.81 µM; IC50 ([3]; Mus musculus, 3T3-L1): 52.5 ± 6.7 µM
5 | – | – | 6.66 ± 0.64 | O=C1C=CC=CC1=C1NNC2(S1)C(=O)Nc1ccc(Br)cc12 (stereo not shown) [IV-1, 5′-bromo-5-(6-oxocyclohexa-2,4-dien-1-ylidene)spiro[1,3,4-thiadiazolidine-2,3′-1H-indole]-2′-one] | not affected | 27 ± 1 | not reduced | not toxic | –
6 | 11.9 ± 1.43 | 11.9 ± 1.43 | – | O=C1Nc2ccccc2C12CN=C(c1ccccc1O)S2 (stereo not shown) [IV-2] | – | – | – | – | –
7 | 4.84 ± 0.69 | 4.84 ± 0.69 | – | O=C1Nc2ccc(Br)cc2C12CN=C(c1ccccc1)S2 (stereo not shown) [IV-3] | – | – | – | – | –

Row | Structure (SMILES) | IC50 [4, 8] [µM] | IC50 [4, 9] [µM] | IC50 [4, 10] [µM] | glucose (2-NBDG) transport ([2]; 20 μM) | % Transport Standard Assay [4] [%] | oleoyl CoA synthetase activity [5] | cellular toxicity (MTT, mitochondrial function) ([6]; 50 μM for 24 h) | other results
8 | COc1cc(/C=C2/SC(=S)N(c3cccc(Cl)c3)C2=O)cc(Br)c1O [Compound I-1, (5E)-5-[(3-bromo-4-hydroxy-5-methoxyphenyl)methylene]-3-(3-chloropheny1)-2-thioxothiazolidin-4-one] | 3.99 ± 0.32 | 3.99 ± 0.32 | – | not affected | 46 ± 3 | – | – | IC50 [1]: 7.55 ± 1.23 µM; IC50 [3]: 231 ± 33.5 µM; IC50 [4, 7]: 3.99 ± 0.32 µM; inhibition of oleoyl CoA synthetase activity ([5]; 50 μM (10 times the IC50)): about 50%
9 | COc1cc(/C=C2/SC(=S)N(c3cccc(Cl)c3)C2=O)ccc1O [Compound I-2] | – | – | 121 ± 25.4 | – | – | – | – | IC50 [4, 11]: 121 ± 25 µM
